{"source": "paper PMC11271967", "about": "“An inhibitory mechanism of AasS, an exogenous fatty acid scavenger: Implications for re-sensitization of FAS II antimicrobials” (PLOS Pathogens, 2024)", "key": {"AasS [1]": {"target": "T1, AasS (Vibrio harveyi, UniProt Q00IB3)", "T1 sequence (Q00IB3 entry or part of it)": "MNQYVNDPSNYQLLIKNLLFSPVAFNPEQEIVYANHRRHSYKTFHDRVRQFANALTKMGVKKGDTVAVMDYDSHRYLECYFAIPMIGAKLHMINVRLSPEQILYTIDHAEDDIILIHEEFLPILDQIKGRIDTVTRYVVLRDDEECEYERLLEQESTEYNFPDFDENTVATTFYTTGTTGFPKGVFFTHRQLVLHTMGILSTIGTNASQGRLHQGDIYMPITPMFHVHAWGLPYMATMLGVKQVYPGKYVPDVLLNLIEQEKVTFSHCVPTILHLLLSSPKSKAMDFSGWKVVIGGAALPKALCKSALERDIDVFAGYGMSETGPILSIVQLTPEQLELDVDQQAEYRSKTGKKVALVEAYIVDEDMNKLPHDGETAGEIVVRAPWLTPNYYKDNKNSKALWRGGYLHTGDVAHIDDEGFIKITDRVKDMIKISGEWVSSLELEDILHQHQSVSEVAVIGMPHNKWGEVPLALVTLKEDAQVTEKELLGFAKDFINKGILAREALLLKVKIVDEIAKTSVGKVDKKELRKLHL", "experiment": "Isothermal titration calorimetry (ITC), wild-type AasS", "format": "binding", "settings": "AasS ~40 μM saturated with ATP 120 μM", "description": "The assays of Isothermal titration calorimetry (ITC) were conducted to address the stoichiometry of AasS binding to its C10-AMS inhibitor and C10-AMP intermediate. Since both malic acid and pimelic acid are not substrates for AasS, the two dicarboxylic acids were assumed as negative controls in our ITC analysis. Using a micro-calorimeter (MicroCal PEAQ-ITC) as recently described for E-C7 with little change, totally 18 titrations (2 μl each at an internal of 2.5 min) proceeded in the cell at room temperature. Prior to the titration, AasS protein (~40 μM) was saturated with its ATP cofactor (120 μM) in the cell, and C10-AMS inhibitor (or C10) was kept at 600 μM in the syringe. The titration buffer was composed of 150 mM NaCl, 25 mM Tris-HCl (pH8.0), 2 mM DTT, and 3 mM MgCl2. One set of site model by the MicroCal PEAQ-ITC software enabled plotting the titration curves. Next, the stoichiometry (N) and dissociation constant (Kd) were calculated. It was given as an average ± standard deviation (SD) from three independent trials."}, "AasS(D411A)": {"tested_on": "AasS(D411A)", "experiment": "Microscale thermophoresis (MST), AasS(D411A) mutant", "format": "binding, Vibrio harveyi", "settings": "MST", "description": "(§1) To validate poor binding of AasS(D411A) to C10 fatty acyl adenylate observed in our ITC assays, the relatively-more sensitive approach of microscale thermophoresis (MST) was additionally applied here as Jerabek-Willemsen et al. described with minor alteration. Using the Protein Labeling Kit (Protein Labeling Kit RED-NHS 2nd Generation, Nano Temper Technology), both the wild-type AasS and its D411A mutant were fluorescently labelled in the MST buffer (150 mM NaCl, 25 mM Tris-HCl, 3 mM MgCl2, 0.05% Tween-20, pH 8.0). The ligand C10-AMP used in MST assays was prepared by an equal mixture of C10 and ATP. In general, an NT.115 Monolith instrument (Nano Temper Technology, Germany) was integrated, of which the routine parameters included a RED/LED (20%) excitation power along with 60% laser power for excitation. Then, the protein samples were siphoned into MST Premium Coated capillaries for the determination of binding affinity at room temperature. The final concentrations of different AasS samples were 40 nM for WT, and 180 nM for D411A, respectively. The mixture of C10/ATP was diluted in a gradient (from 0.15 nM to 5.0 μM). Three independent MST experiments were conducted here. The dissociation constants (Kd) were calculated using the software MO. Affinity Analysis v2.3. Of note, this was largely dependent on the KD model with a 1:1 stoichiometry per binding partner."}, "AasS [2]": {"target": "T1, AasS", "experiment": "Microscale thermophoresis (MST), wild-type AasS", "format": "binding", "settings": "MST", "description": "as §1"}, "AasS [3]": {"tested_on": "AasS", "experiment": "In vitro enzymatic activity of AasS (acyl-ACP formation, conformationally-sensitive urea PAGE, ImageJ semi-quantitation)", "format": "biochemical, Vibrio harveyi"}}, "note": "Where “and” joins values, the source holds several entries; their conditions need not be identical. Equal values may be shown once. Read-outs that look alike come from different tables or passages of the source.", "data": [{"smiles": "CCCCCCCCCC(=O)NS(=O)(=O)OC[C@H]1O[C@@H](n2cnc3c(N)ncnc32)[C@H](O)[C@@H]1O", "note": "[C10-AMS]", "values": [{"measurement": "stoichiometry (n)", "setting": "AasS [1]", "value": "0.97±0.16"}, {"measurement": "Kd", "setting": "AasS [1]; ligand 600 μM in syringe, room temperature, read-out: dissociation constant (Kd)", "value": "14.1 ± 3.82", "unit": "nM"}, {"measurement": "Average (DeltaFNorm), AasS(D411A)", "setting": "AasS(D411A); Dose 1.52588e-10", "value": 4.014}, {"measurement": "Average (DeltaFNorm), AasS(D411A)", "setting": "AasS(D411A); Dose 3.05176e-10", "value": 2.739}, {"measurement": "Average (DeltaFNorm), AasS(D411A)", "setting": "AasS(D411A); Dose 6.10352e-10", "value": 3.15}, {"measurement": "Average (DeltaFNorm), AasS(D411A)", "setting": "AasS(D411A); Dose 1.2207e-9", "value": 3.03}, {"measurement": "Average (DeltaFNorm), AasS(D411A)", "setting": "AasS(D411A); Dose 2.44141e-9", "value": -1.436}, {"measurement": "Average (DeltaFNorm), AasS(D411A)", "setting": "AasS(D411A); Dose 4.88281e-9", "value": 1.165}, {"measurement": "Average (DeltaFNorm), AasS(D411A)", "setting": "AasS(D411A); Dose 9.76563e-9", "value": 0.1826}, {"measurement": "Average (DeltaFNorm), AasS(D411A)", "setting": "AasS(D411A); Dose 1.95313e-8", "value": -0.6893}, {"measurement": "Average (DeltaFNorm), AasS(D411A)", "setting": "AasS(D411A); Dose 3.90625e-8", "value": 2.194}, {"measurement": "Average (DeltaFNorm), AasS(D411A)", "setting": "AasS(D411A); Dose 7.8125e-8", "value": -2.669}, {"measurement": "Average (DeltaFNorm), AasS(D411A)", "setting": "AasS(D411A); Dose 1.5625e-7", "value": -0.9022}, {"measurement": "Average (DeltaFNorm), AasS(D411A)", "setting": "AasS(D411A); Dose 3.125e-7", "value": -3.911}, {"measurement": "Average (DeltaFNorm), AasS(D411A)", "setting": "AasS(D411A); Dose 1.25e-6", "value": -3.293}, {"measurement": "Average (DeltaFNorm), AasS(D411A)", "setting": "AasS(D411A); Dose 2.5e-6", "value": -1.334}, {"measurement": "Average (DeltaFNorm), AasS(D411A)", "setting": "AasS(D411A); Dose 5e-6", "value": -2.2407}, {"measurement": "Average (DeltaFNorm), AasS(WT)", "setting": "AasS [2]; Dose 1.52588e-10", "value": 0.4239}, {"measurement": "Average (DeltaFNorm), AasS(WT)", "setting": "AasS [2]; Dose 3.05176e-10", "value": 1.688}, {"measurement": "Average (DeltaFNorm), AasS(WT)", "setting": "AasS [2]; Dose 6.10352e-10", "value": 0.6276}, {"measurement": "Average (DeltaFNorm), AasS(WT)", "setting": "AasS [2]; Dose 1.2207e-9", "value": -0.2133}, {"measurement": "Average (DeltaFNorm), AasS(WT)", "setting": "AasS [2]; Dose 2.44141e-9", "value": -0.7539}, {"measurement": "Average (DeltaFNorm), AasS(WT)", "setting": "AasS [2]; Dose 4.88281e-9", "value": -0.9203}, {"measurement": "Average (DeltaFNorm), AasS(WT)", "setting": "AasS [2]; Dose 9.76563e-9", "value": -2.469}, {"measurement": "Average (DeltaFNorm), AasS(WT)", "setting": "AasS [2]; Dose 1.95313e-8", "value": -0.4913}, {"measurement": "Average (DeltaFNorm), AasS(WT)", "setting": "AasS [2]; Dose 3.90625e-8", "value": -0.5142}, {"measurement": "Average (DeltaFNorm), AasS(WT)", "setting": "AasS [2]; Dose 7.8125e-8", "value": -1.198}, {"measurement": "Average (DeltaFNorm), AasS(WT)", "setting": "AasS [2]; Dose 1.5625e-7", "value": -2.398}, {"measurement": "Average (DeltaFNorm), AasS(WT)", "setting": "AasS [2]; Dose 3.125e-7", "value": -4.638}, {"measurement": "Average (DeltaFNorm), AasS(WT)", "setting": "AasS [2]; Dose 6.25e-7", "value": -6.534}, {"measurement": "Average (DeltaFNorm), AasS(WT)", "setting": "AasS [2]; Dose 1.25e-6", "value": -7.36}, {"measurement": "Average (DeltaFNorm), AasS(WT)", "setting": "AasS [2]; Dose 2.5e-6", "value": -8.128}, {"measurement": "Average (DeltaFNorm), AasS(WT)", "setting": "AasS [2]; Dose 5e-6", "value": -7.529}, {"measurement": "inhibition of C10 fatty acylation, Average (S1E Fig, second block; order of addition not printed)", "setting": "AasS [3]", "value": "64.1924% and 78.0145% and 84.8528% and 86.8699%"}, {"measurement": "inhibition of C10 fatty acylation, Average (S1E Fig, third block; order of addition not printed)", "setting": "AasS [3]", "value": "82.6351% and 89.1845% and 93.1119% and 91.664%"}, {"measurement": "Ki", "setting": "AasS [3]; C10 substrate fixed at 80 μM, AasS 3 nM, semi-quantitative gel assay, read-out: inhibition constant (Ki) of C10-AMS vs AasS", "value": "~620 nM and 620 nM and ~600 nM"}, {"measurement": "Ki", "setting": "AasS [3]; E-C7 600 μM, AasS 31.25 nM, read-out: Ki for E-C7 acyl substrate", "value": "~2950 nM and 2950 nM"}, {"measurement": "Ki", "setting": "AasS [3]; condition 1#, C10 80 μM, AasS 3 nM, read-out: Ki, order-of-addition experiment", "value": 670, "unit": "nM"}, {"measurement": "Ki", "setting": "AasS [3]; condition 2#, C10 80 μM, AasS 3 nM, read-out: Ki, order-of-addition experiment", "value": 1370, "unit": "nM"}]}]}
